In one assay the target is human TRPM8 (Homo sapiens (Human), UniProt Q7Z2W7). As to the kind of experiment: In Vitro Human TRPM8 Functional Assay (Ca2+ fluorescence, icilin EC80). It counts as cell-based. The note with it: read-out: hTRPM8 IC50. The method, then:
(§1) HEK293 cells are routinely grown as monolayer in Dulbecco's minimum essential medium supplemented with 10% FBS, 1 mM L-glutamine, 100 units/mL penicillin and 100 ug/mL streptomycin. Cells are maintained in 5% CO2 at 37° C.
(§2) For functional expression of TRPM8, the full-length cDNA encoding human and rat TRPM8 are subcloned into pCI-NEO mammalian expression vectors. The expression constructs are transiently transfected into HEK293 cells according to the FuGENE 6 Transfection Reagent® (ROCHE) instructions. Within twenty-four hours, transiently transfected cells are harvested and either seeded directly into assay plate or cryopreserved for future usage. […]
(§3) Maximal fluorescence intensity (FI) achieved upon addition of icilin is exported from the FDSS and further analyzed using GraphPad Prism 3.02 (Graph Pad Software Inc., CA, U.S.A.) where data is normalized to percent of maximal response. The dose response curves from the average of quadruplicate wells for each data point are analyzed by using nonlinear regression of either sigmoidal dose response or sigmoidal dose response (variable slope). Finally, the IC50 values are calculated with the best-fit dose curve determined by Prism.

In assay [1] the test system is Male Sprague Dawley rats. As to the kind of experiment: Chronic Constriction Injury (CCI)-Induced Model of Neuropathic Pain, Acetone-Induced Hypersensitivity. The format is in vivo, rat. The note with it: Rattus norvegicus, po, Na salt form; for inhibition in vivo at 3 mg/kg: 3 mg/kg p.o.; for inhibition in vivo at 10 mg/kg: 10 mg/kg p.o.; for inhibition in vivo at 17.8 mg/kg: 17.8 mg/kg p.o.; for inhibition in vivo at 30 mg/kg: 30 mg/kg p.o.; for inhibition in vivo at 56 mg/kg: 56 mg/kg p.o.

The next assay has as its system Sprague-Dawley rats. Description: CFA-Induced Paw Radiant Heat Hypersensitivity. The format is in vivo, rat. The note with it: HPbCD, Na salt form. The method, then:
Intraplantar injection of complete Freund's adjuvant (CFA) in rodents results in a long-lasting inflammatory reaction, characterized by a pronounced hypersensitivity to both thermal and mechanical stimuli. This hypersensitivity peaks between 24-72 hours following injection and can last for several weeks. To assess whether test compounds of the formula (I) reverse established hypersensitivity, a 100 μL intraplantar injection of CFA (suspended in a 1:1 emulsion of saline and heat-killed Mycobacterium tuberculosis in mineral oil) can be injected into a single hind paw of Sprague-Dawley rats (typically males ranging from 150-350 g). This paradigm also may be conducted with a multiple dosing or a prophylactic dosing regime designed to alter the course of hyperalgesia development. This test predicts the analgesic, anti-allodynic and antihyperalgesic effect of numerous effective clinical agents, including acetaminophen, NSAIDS such as aspirin and ibuprofen, and opioids, such as morphine.
Each rat is placed in a test chamber on a warm glass surface and allowed to acclimate for approximately 10 minutes. A radiant thermal stimulus (beam of light) is then focused through the glass onto the plantar surface of each hind paw in turn. The thermal stimulus is automatically shut off by a photoelectric relay when the paw is moved or when the cut-off time is reached (20 seconds for radiant heat at […]). An initial (baseline) response latency to the thermal stimulus is recorded for each animal prior to the injection of CFA. Twenty-four hours following intraplantar CFA injection, the response latency of the animal to the thermal stimulus is then re-evaluated and compared to the animal's baseline response time. […] Immediately following the post-CFA latency assessment, test compound or vehicle (usually Solutol, hydroxypropyl methylcellulose, hydroxypropyl beta-cyclodextrin or PEG-400) is administered i.p. or p.o. to rats. Post-compound treatment withdrawal latencies are assessed at fixed time intervals, typically 30, 60 and 120 minutes. The percent reversal (% R) of hypersensitivity is calculated according to the following formula: % Reversal=(Treatment Response-CFA Response)/(Baseline Response-CFA Response)×100.

Assay [2] relates to Male Sprague Dawley rats. As to the kind of experiment: Inhibition of Icilin-Induced "Wet-Dog" Shakes in Rats. The note with it: Rattus norvegicus, po, HPbCD, Na salt form. It counts as in vivo, rat.
In another assay the target is rat TRPM8 (Rattus norvegicus (Rat), UniProt Q8R455). Description: In Vitro Rat TRPM8 Functional Assay (Ca2+ fluorescence, icilin EC80). The format is cell-based. The note with it: read-out: rTRPM8 IC50. The method, then:
as §1, §2, §3

The mark [3] stands for this setting: 4 h, vehicle HPbCD, Water, pretreatment 4 hr, read-out: Percent Inhibition.
The mark [4] stands for this setting: 4 h, HPbCD, pretreatment 4 hr, read-out: Percent Inhibition.
The mark [5] stands for this setting: 4 h, Water, pretreatment 4 hr, read-out: Percent Inhibition.

The structures appear in SMILES notation. Several values for one entry are separate records, joined by “and”; a condition that tells them apart may be missing. Identical values can stand only once. Like-named read-outs stand apart in the source and are kept apart here.

What is called IC50 is the concentration needed to halve the response being measured. The term ED50 denotes the dose that gives a 50% effect, or the effect in half of the subjects.

Chain of human TRPM8 (Q7Z2W7 whole entry): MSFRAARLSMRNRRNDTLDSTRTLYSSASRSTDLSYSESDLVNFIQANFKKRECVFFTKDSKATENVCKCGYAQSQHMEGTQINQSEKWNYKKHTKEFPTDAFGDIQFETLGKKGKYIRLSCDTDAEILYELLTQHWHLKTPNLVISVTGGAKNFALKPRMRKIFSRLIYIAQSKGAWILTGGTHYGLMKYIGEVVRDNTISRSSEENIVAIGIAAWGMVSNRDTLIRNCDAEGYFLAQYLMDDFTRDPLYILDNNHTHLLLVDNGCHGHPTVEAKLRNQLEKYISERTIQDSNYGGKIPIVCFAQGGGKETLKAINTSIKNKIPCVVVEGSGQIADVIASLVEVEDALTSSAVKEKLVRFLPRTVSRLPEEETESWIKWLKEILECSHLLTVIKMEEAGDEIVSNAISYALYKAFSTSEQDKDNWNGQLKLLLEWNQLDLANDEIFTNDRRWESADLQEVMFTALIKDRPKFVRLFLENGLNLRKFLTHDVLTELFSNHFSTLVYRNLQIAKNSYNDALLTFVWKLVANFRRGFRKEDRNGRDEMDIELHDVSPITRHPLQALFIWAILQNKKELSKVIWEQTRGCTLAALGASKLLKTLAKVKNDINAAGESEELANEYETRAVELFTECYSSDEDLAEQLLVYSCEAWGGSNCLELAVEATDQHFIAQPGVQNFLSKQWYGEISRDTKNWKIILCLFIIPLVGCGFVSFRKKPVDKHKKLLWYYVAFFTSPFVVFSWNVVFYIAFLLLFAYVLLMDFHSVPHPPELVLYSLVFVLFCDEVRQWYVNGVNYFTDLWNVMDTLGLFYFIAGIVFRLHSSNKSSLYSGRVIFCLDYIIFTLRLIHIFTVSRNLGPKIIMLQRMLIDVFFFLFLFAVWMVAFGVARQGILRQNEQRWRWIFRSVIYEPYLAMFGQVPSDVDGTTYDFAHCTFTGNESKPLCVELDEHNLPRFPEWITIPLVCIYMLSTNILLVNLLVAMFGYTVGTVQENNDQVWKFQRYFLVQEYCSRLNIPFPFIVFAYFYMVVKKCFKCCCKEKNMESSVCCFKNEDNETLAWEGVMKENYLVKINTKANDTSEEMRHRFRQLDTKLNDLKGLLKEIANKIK
Chain of rat TRPM8 (Q8R455 whole entry): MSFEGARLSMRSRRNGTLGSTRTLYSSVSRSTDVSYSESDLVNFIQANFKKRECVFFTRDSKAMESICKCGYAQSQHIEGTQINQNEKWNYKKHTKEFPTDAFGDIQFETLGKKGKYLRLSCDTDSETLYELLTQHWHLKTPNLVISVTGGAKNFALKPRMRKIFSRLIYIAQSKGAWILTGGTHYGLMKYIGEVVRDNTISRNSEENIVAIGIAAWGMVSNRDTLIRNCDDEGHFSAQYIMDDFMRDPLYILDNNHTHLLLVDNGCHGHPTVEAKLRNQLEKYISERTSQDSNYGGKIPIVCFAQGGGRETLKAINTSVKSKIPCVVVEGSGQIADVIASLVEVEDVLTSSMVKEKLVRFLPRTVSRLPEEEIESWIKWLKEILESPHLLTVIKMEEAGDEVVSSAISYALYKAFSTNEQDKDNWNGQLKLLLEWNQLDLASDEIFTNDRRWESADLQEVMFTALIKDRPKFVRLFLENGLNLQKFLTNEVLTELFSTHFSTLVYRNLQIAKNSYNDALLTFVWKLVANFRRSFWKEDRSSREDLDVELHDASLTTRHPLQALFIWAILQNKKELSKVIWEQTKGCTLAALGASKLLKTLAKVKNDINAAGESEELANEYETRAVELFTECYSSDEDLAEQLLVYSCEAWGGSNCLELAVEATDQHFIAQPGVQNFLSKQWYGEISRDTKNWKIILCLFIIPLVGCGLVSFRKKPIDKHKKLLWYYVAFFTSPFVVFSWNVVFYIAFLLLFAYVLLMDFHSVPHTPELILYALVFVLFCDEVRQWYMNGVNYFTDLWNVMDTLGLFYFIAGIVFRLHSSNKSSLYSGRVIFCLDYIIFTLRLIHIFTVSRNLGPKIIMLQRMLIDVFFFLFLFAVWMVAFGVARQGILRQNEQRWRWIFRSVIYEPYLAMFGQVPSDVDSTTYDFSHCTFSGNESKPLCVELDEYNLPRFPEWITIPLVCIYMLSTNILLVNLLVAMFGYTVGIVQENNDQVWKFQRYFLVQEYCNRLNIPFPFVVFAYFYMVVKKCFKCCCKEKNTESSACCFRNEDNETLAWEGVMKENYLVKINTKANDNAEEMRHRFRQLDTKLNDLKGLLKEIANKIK

For the molecule `Cc1c(N(Cc2ccc(F)c(C(F)(F)F)c2)S(=O)(=O)c2ccc(C(=O)O)cc2)sc2ccccc12` [Compound 306, N-(3-Methyl-benzo[b]thiophen-2-yl)-N-(4-fluoro-3-trifluoromethyl-benzyl)-4-carboxy-benzenesulfonamide], the IC50 on human TRPM8 (Freshly transfected cells) worked out at 4 nM; at rat TRPM8 (Freshly transfected cells), 5 nM. Besides, the inhibition in vivo at 3 mg/kg in the assay on Male Sprague Dawley rats [1] (setting [3]) came to 20%. Also, the inhibition in vivo at 10 mg/kg in the assay on Male Sprague Dawley rats [1] (setting [3]) was 38%. In the assay with Male Sprague Dawley rats [1] (setting [3]), the inhibition in vivo at 17.8 mg/kg was 57%. Moreover, the inhibition in vivo at 30 mg/kg was 68% in the assay on Male Sprague Dawley rats [1] (setting [3]) and 69% in the assay with Male Sprague Dawley rats [1] (6 h, HPbCD, pretreatment 6 hr, read-out: Percent Inhibition). Moreover, the inhibition in vivo at 56 mg/kg with Male Sprague Dawley rats [1] (setting [3]) is 77%. Moreover, the inhibition in vivo at 100 mg/kg in the assay on Male Sprague Dawley rats [1] (4 h, 100 mg/kg p.o., vehicle HPbCD, Water, pretreatment 4 hr, read-out: Percent Inhibition) was determined as 77%. The ED50 in the assay on Male Sprague Dawley rats [1] (vehicle HPbCD, Water, pretreatment 4 hr) is 15 mg/kg; in the assay on Male Sprague Dawley rats [2] (1 h, 60 min pre-icilin), 2.5 mg/kg. Besides, the “Percent Reversal” value is 31% in the assay with Sprague-Dawley rats (dose 3 p.o., treatment time 100 min); 76% with Sprague-Dawley rats (dose 5.6 p.o., treatment time 100 min); 91% and 93% in the assay with Sprague-Dawley rats (dose 10 p.o., treatment time 100 min); 59% with Sprague-Dawley rats (dose 30 p.o., treatment time 100 min).

Take `Cc1c(N(Cc2ccc(OC(F)(F)F)cc2)S(=O)(=O)c2ccc(C(=O)O)cc2)sc2ccccc12` [Compound 496, N-(3-Methyl-benzo[b]thiophen-2-yl)-N-(4-trifluoromethoxy-benzyl)-4-carboxy-benzenesulfonamide]: the values for the IC50 on human TRPM8 (Cryopreserved cells) and at rat TRPM8 (Cryopreserved cells) were 1.4 nM and 1.8 nM, respectively. Besides, the inhibition in vivo at 30 mg/kg in the assay with Male Sprague Dawley rats [1] (2 h, Water, pretreatment 2 hr, read-out: Percent Inhibition) was 74%; in the assay on Male Sprague Dawley rats [1] (setting [5]), 72%. For the same molecule, the inhibition in vivo at 0.3 mg/kg in the assay on Male Sprague Dawley rats [1] (4 h, 0.3 mg/kg p.o., HPbCD, pretreatment 4 hr, read-out: Percent Inhibition) stood at 28%. The inhibition in vivo at 1 mg/kg with Male Sprague Dawley rats [1] (4 h, 1 mg/kg p.o., HPbCD, pretreatment 4 hr, read-out: Percent Inhibition) was 32%. Moreover, the inhibition in vivo at 3 mg/kg in the assay on Male Sprague Dawley rats [1] (setting [4]) worked out at 23%. Moreover, the inhibition in vivo at 5.6 mg/kg in the assay on Male Sprague Dawley rats [1] (4 h, 5.6 mg/kg p.o., HPbCD, pretreatment 4 hr, read-out: Percent Inhibition) was determined as 72%. Further, the inhibition in vivo at 10 mg/kg in the assay on Male Sprague Dawley rats [1] (setting [4]) turned out to be 71%; with Male Sprague Dawley rats [1] (setting [5]) it was 76%. For the same molecule, the inhibition in vivo at 17.8 mg/kg with Male Sprague Dawley rats [1] (setting [5]) came to 64%. Also, the inhibition in vivo at 56 mg/kg in the assay on Male Sprague Dawley rats [1] (setting [5]) is 68%. Besides, the ED50 with Male Sprague Dawley rats [1] (HPbCD, pretreatment 4 hr) came to 3.5 mg/kg; in the assay with Male Sprague Dawley rats [2] (2 h, 120 min pre-icilin), 2.5 mg/kg. For the same molecule, the “Percent Reversal” value is recorded as 9% with Sprague-Dawley rats (dose 1 p.o., treatment time 60 min); −10% in the assay with Sprague-Dawley rats (dose 3 p.o., treatment time 60 min); 10% in the assay on Sprague-Dawley rats (dose 5.6 p.o., treatment time 60 min); 30% in the assay on Sprague-Dawley rats (dose 30 p.o., treatment time 60 min).
